From paper PMC2883171 (Organic & biomolecular chemistry, 2008)

T1: soybean lipoxygenase-1 (sLO-1) (Glycine max, UniProt P08170)
T1 sequence (P08170 1-839): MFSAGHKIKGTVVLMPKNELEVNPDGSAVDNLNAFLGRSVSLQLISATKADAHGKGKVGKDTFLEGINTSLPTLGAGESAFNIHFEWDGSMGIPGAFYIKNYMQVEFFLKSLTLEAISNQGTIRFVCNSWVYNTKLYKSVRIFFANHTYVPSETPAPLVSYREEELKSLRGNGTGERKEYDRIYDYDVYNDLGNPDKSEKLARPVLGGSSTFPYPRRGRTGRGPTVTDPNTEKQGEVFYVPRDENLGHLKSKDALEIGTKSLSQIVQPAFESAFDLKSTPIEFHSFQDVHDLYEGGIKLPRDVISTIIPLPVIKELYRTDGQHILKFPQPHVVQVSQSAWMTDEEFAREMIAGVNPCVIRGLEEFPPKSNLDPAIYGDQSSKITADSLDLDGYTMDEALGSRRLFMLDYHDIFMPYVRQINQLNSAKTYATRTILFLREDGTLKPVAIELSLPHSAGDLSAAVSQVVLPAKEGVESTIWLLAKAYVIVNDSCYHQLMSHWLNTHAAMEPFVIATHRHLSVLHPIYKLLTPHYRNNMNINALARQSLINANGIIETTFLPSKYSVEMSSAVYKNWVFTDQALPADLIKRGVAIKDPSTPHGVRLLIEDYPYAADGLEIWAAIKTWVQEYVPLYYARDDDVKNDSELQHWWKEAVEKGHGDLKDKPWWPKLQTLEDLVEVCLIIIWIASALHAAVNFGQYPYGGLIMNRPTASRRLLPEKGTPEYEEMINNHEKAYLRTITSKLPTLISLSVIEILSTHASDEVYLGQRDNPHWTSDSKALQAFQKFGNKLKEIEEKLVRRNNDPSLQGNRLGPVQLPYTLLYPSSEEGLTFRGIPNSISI

T2: human reticulocyte 15-lipoxygenase-1 (15-hLO-1) (Homo sapiens, UniProt P16050)
T2 sequence (P16050 1-662): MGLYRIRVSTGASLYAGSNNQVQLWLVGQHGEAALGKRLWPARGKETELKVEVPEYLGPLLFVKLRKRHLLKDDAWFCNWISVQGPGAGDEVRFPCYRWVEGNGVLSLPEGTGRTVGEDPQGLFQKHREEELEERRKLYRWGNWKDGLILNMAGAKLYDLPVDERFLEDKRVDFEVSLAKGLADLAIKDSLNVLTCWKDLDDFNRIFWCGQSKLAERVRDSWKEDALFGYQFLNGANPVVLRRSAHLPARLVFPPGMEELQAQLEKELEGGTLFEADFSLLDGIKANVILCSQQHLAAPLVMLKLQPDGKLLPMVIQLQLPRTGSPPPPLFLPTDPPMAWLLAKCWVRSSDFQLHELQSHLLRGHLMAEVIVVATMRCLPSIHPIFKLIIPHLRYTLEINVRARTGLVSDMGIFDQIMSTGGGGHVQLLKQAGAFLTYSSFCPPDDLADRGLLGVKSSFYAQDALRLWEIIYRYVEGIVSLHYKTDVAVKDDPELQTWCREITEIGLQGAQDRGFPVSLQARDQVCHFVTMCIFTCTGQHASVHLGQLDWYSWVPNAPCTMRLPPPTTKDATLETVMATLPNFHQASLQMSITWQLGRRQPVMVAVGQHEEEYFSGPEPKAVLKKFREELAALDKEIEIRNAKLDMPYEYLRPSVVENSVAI


Columns and labels:
[1] = molecular target: T1, soybean lipoxygenase-1 (sLO-1); assay: Kinetic inhibition assay of sLO-1; type: biochemical; details: read-out: Km for linoleic acid with sLO-1; pH 10.0
[2] = molecular target: T2, human reticulocyte 15-lipoxygenase-1 (15-hLO-1); assay: Kinetic inhibition assay of 15-hLO-1; type: biochemical; details: read-out: Km with 15-hLO-1; substrate itself, 13-HPODE activator
[3] = substrate: CCCCC/C=C\C/C=C\C/C=C\C/C=C\CCCC(=O)O; assay: Kinetic inhibition assay of sLO-1; type: biochemical, soybean

Km [1] [µM] | Km [2] [µM] | Molecule | Km ([3]; other: pH 7.5, 13-HPODE activator, pH 7.5) [µM] | Km ([3]; other: pH 10.0, 13-HPODE activator, pH 10.0) [µM]
28 ± 5 | 6.2 ± 0.9 | CCCCC/C=C\C/C=C\CCCCCCCC(=O)O [LA, linoleic acid, reference compound] | – | –
– | – | soybean lipoxygenase-1 (sLO-1) (Glycine max) (protein) MFSAGHKIKGTVVLMPKNELEVNPDGSAVDNLNAFLGRSVSLQLISATKADAHGKGKVGKDTFLEGINTSLPTLGAGESAFNIHFEWDGSMGIPGAFYIKNYMQVEFFLKSLTLEAISNQGTIRFVCNSWVYNTKLYKSVRIFFANHTYVPSETPAPLVSYREEELKSLRGNGTGERKEYDRIYDYDVYNDLGNPDKSEKLARPVLGGSSTFPYPRRGRTGRGPTVTDPNTEKQGEVFYVPRDENLGHLKSKDALEIGTKSLSQIVQPAFESAFDLKSTPIEFHSFQDVHDLYEGGIKLPRDVISTIIPLPVIKELYRTDGQHILKFPQPHVVQVSQSAWMTDEEFAREMIAGVNPCVIRGLEEFPPKSNLDPAIYGDQSSKITADSLDLDGYTMDEALGSRRLFMLDYHDIFMPYVRQINQLNSAKTYATRTILFLREDGTLKPVAIELSLPHSAGDLSAAVSQVVLPAKEGVESTIWLLAKAYVIVNDSCYHQLMSHWLNTHAAMEPFVIATHRHLSVLHPIYKLLTPHYRNNMNINALARQSLINANGIIETTFLPSKYSVEMSSAVYKNWVFTDQALPADLIKRGVAIKDPSTPHGVRLLIEDYPYAADGLEIWAAIKTWVQEYVPLYYARDDDVKNDSELQHWWKEAVEKGHGDLKDKPWWPKLQTLEDLVEVCLIIIWIASALHAAVNFGQYPYGGLIMNRPTASRRLLPEKGTPEYEEMINNHEKAYLRTITSKLPTLISLSVIEILSTHASDEVYLGQRDNPHWTSDSKALQAFQKFGNKLKEIEEKLVRRNNDPSLQGNRLGPVQLPYTLLYPSSEEGLTFRGIPNSISI | 31.7 ± 3.5 | 15.1 ± 1.5
